Laboratory results reported in patent publication US4512986A, “Progrestationally active steroids” (priority 1983, dated 1985).
Read-outs that look alike come from different tables or passages of the source.

Experiments:
[1] = tested on: endometrium of estrogen-primed ovariectomized or climacteric women; conditions: oral; cited from earlier work
[2] = molecular target: T1, Cytosol Progesterone Receptor of the Estrogen-primed Immature Rabbit Uterus (Oryctolagus cuniculus, UniProt P06186); assay: Relative binding affinity for progesterone receptor (competition with 3H-progesterone); parameters: species or system rabbit (New Zealand White); conditions: 16-18 hour incubation, progesterone = 100
T1 construct: cytosol progesterone receptor of the estrogen-primed immature rabbit uterus; tissue Dutchland Laboratories, Inc., Denver, Pa (animals); host or cells: uterus cytosol of estradiol-treated immature female New Zealand White rabbits
T1 sequence (P06186 1-930): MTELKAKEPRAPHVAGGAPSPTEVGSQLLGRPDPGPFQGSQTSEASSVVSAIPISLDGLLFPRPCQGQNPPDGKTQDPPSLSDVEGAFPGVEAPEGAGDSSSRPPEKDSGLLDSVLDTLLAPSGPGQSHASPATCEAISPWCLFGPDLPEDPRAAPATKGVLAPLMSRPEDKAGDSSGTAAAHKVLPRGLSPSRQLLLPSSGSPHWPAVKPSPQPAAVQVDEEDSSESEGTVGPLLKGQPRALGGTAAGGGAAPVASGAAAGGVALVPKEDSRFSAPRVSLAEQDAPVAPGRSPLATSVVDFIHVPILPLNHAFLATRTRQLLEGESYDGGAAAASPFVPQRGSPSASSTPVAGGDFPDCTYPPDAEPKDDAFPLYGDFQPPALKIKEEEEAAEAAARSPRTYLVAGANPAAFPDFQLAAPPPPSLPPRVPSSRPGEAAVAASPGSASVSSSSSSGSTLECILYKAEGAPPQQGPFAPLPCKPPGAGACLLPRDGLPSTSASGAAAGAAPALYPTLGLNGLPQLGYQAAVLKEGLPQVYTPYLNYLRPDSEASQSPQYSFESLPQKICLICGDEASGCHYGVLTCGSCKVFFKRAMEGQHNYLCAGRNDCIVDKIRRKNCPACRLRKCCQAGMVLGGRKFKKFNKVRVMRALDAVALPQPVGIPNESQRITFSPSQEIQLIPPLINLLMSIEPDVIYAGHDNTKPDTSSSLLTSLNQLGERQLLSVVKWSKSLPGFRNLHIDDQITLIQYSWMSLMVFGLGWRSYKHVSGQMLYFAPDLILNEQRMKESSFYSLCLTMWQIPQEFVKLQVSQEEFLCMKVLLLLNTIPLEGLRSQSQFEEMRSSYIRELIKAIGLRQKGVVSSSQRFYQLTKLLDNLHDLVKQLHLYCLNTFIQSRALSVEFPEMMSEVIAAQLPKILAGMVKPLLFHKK
Protocol: RBA values recorded at 0° C. after short incubation times (e.g., 2 hr) mainly reflect differences in the association rate constants of the competing ligands, whereas those measured after long incubation times (e.g., 16 to 24 hr) and/or higher temperatures predominantly are influenced by differences in the dissociation rate constants of the competing ligands. RBA's determined after short incubation times primarily reflect the association of the competitor compared to the natural hormone. Conversely, RBA's measured after long incubation times reflect the dissociation rate of the competitor compared to the natural hormone.
The assay components are combined, allowed to equilibrate, and unbound radioactivity removed by charcoal adsorption.
Animal species. Immature female New Zealand White rabbits weighing 0.8 to 1.0 kg (Dutchland Laboratories, Inc., Denver, Pa).
Pretreatment. Subcutaneous treatment with 15 μg 17β-estradiol/0.6 ml sesame oil each morning (0830 to 0930 hr) for three days. Animals sacrificed 24 hr after final injection.
Tissue. Uterus; each uterus weighed about 1.0 g and two or three uteri were pooled for each assay.
Buffer. (A) 0.01M TES, pH 7.4, 1 mM EDTA, 0.012M thioglycerol and 30% glycerol for cytosol preparation and ^3 H-steroid, unlabeled hormone and compound solutions. (B) 0.01M TES, pH 7.4, 1 mM EDTA and 0.012M thioglycerol for charcoal solution.
Homogenization. Five or six 5-second bursts with 30 second cooling periods between bursts using Brinkman Polytron Pt. 10 at 3.5 rheostat setting.
Temperature. 0°-4° C. for all steps.
Centrifugation. 45,000 rpm for 1 hr, 50 Ti rotor, Beckman L8-80 ultracentrifuge.
Incubation. 16-18 hr at 4°-6° C.
Concentations. 1×10^-10 M to 1×10^-5 M (7 concentrations).
Method. Charcoal adsorption method used to remove unbound radioactivity. Five-tenths ml of dextran-coated charcoal (0.5% Norit A and 0.05% dextran T-70) added to all tubes except total radioactivity tubes (0.5 ml buffer [B] added), tubes vortexed 3-5 sec, allowed to sit for 10 minutes and centrifuged 10 minutes at 2000 rpm in Beckman TJ-6 centrifuge at 0°-4° C.
Data Interpretation. […] The relative binding affinity (RBA) of each compound was calculated by using the following equation. [formula] where

[3] = general knowledge; cited from earlier work
[4] = tested on: estrogen-primed immature rabbits; conditions: cited from earlier work
[5] = tested on: uterine endometrium of estrone-primed immature rabbits; assay: Clauberg assay (progestational activity, McPhail); type: in vivo, rabbit (New Zealand White); conditions: oral; for McPhail Index (0-4) (X ± S.D.): 0 none, 4 maximal
[6] = tested on: androgen target organs of castrate immature male rats; assay: Anti-androgenic activity in the castrate immature rat assay; type: in vivo
Protocol: The oral anti-androgenic activity of 6-methyl-6-dehydro-17α-ethynylprogesterone was evaluated in the castrate immature male rat assay [Lerner et al., Proc. Soc. […] The assay is briefly described in the footnotes to Table 11.
*This assay employs castrate immature rats. For methods refer to Lerner,
L. J., A. Bianchi and A. Borman, Proc. Soc.
**Groups of rats (7/group) were given daily injections of 0.3 ml sesame
oil (control) or compound (in 0.3 ml sesame oil) for 7 days. Some groups
also concurrently received progestational compounds by the sc or oral
route of administration in order to evaluate antiandrogenic activity. One
day after the final doses, the animals were sacrificed and the androgen
target organs indicated were weighed.
***Statistically significant (p < 0.05) lower organ weights versus the
testosterone, sc, (400 μg/rat/day) group as determined by Analysis of
Variance coupled with Duncan's Multiple Range Test.

[7] = 100 μg/rabbit daily, listed as 6α-Methyl-17α-acetoxyprogesterone
[8] = oral 25 μg/rat daily + testosterone sc 400
[9] = oral 100 μg/rat daily + testosterone sc 400
[10] = oral 400 μg/rat daily + testosterone sc 400

## CC(=O)O[C@]1(C(C)=O)CC[C@H]2[C@@H]3C[C@H](C)C4=CC(=O)CC[C@]4(C)[C@H]3CC[C@@]21C [Medroxyprogesterone Acetate, 6α-Methyl-17α-acetoxyprogesterone, reference compound]
[1]
  Threshold or effective dose, Kaufman Assay: 40-70 mg/cycle
[2]; Assay 4
  RBA: 57%
[2]; Assay 5
  RBA: 133%
[2]; Assay 6
  RBA: 143%
[3]
  oral progestational activity, in words: potent orally active progestational compounds
[4]; oral
  Threshold or effective dose, Clauberg Assay: 0.01-0.03 mg/animal
[4]; s.c. (i.m.)
  Threshold or effective dose, Clauberg Assay: 0.01-0.03 mg/animal
[5]; 5 μg/rabbit daily
  Uterine Weight (X ± S.D.): 1.08 ± 0.01 g
  McPhail Index (0-4) (X ± S.D.): 0.29 ± 0.06
[5]; 10 μg/rabbit daily
  Uterine Weight (X ± S.D.): 1.35 ± 0.34 g
  McPhail Index (0-4) (X ± S.D.): 0.71 ± 0.06
[5]; 25 μg/rabbit daily
  Uterine Weight (X ± S.D.): 1.12 ± 0.19 g
  McPhail Index (0-4) (X ± S.D.): 0.25 ± 0.10
[5]; 50 μg/rabbit daily
  Uterine Weight (X ± S.D.): 2.82 ± 0.92 g
  McPhail Index (0-4) (X ± S.D.): 3.00 ± 0.83
[5]; 100 μg/rabbit daily
  Uterine Weight (X ± S.D.): 2.65 ± 0.35 g
  McPhail Index (0-4) (X ± S.D.): 3.90 ± 0.13
[5]; [7]
  McPhail Index (0-4) (X ± S.D.): 2.66 ± 1.10
  Uterine Weight (X ± S.D.): 2.11 ± 1.28 g
[5]; 200 μg/rabbit daily
  Uterine Weight (X ± S.D.): 3.30 ± 0.41 g
  McPhail Index (0-4) (X ± S.D.): 4.00 ± 0.00
[5]; 400 μg/rabbit daily
  Uterine Weight (X ± S.D.): 3.73 ± 0.61 g
  McPhail Index (0-4) (X ± S.D.): 4.00 ± 0.00

## CC(=O)O[C@]1(C(C)=O)CC[C@H]2[C@@H]3C=C(C)C4=CC(=O)CC[C@]4(C)[C@H]3CC[C@@]21C [Megestrol Acetate, 6-Methyl-6-dehydro-17α-acetoxyprogesterone]
[1]
  Threshold or effective dose, Kaufman Assay: 35-50 mg/cycle
[6]; [8]
  Levator Ani weight (X ± S.D.): 50 ± 8 mg
  Seminal Vesicles weight (X ± S.D.): 125 ± 23 mg
  Ventral Prostate weight (X ± S.D.): 42 ± 20 mg
[6]; [9]
  Levator Ani weight (X ± S.D.): 55 ± 12 mg
  Seminal Vesicles weight (X ± S.D.): 128 ± 36 mg
  Ventral Prostate weight (X ± S.D.): 54 ± 13 mg
[6]; [10]
  Levator Ani weight (X ± S.D.): 65 ± 12 mg
  Seminal Vesicles weight (X ± S.D.): 120 ± 21 mg
  Ventral Prostate weight (X ± S.D.): 48 ± 15 mg
[6]; with testosterone sc 400 μg/rat/day, doses up to 400 μg/rat/day (progestagen oral; progesterone sc)
  anti-androgenic activity, in words: significant anti-androgenic activity
[3]
  oral progestational activity, in words: potent orally active progestational compounds
[4]; oral
  Threshold or effective dose, Clauberg Assay: 0.03 mg/animal
[4]; s.c. (i.m.)
  Threshold or effective dose, Clauberg Assay: 0.01-0.03 mg/animal

## C#C[C@]1(O)CC[C@H]2[C@@H]3CCC4=CC(=O)CC[C@@H]4[C@H]3CC[C@@]21C [Norethisterone]
[1]
  Threshold or effective dose, Kaufman Assay: 100-150 mg/cycle
[4]; s.c. (i.m.)
  Threshold or effective dose, Clauberg Assay: 0.1 mg/animal

## C#C[C@]1(O)CC[C@H]2[C@@H]3CCC4=C(CCC(=O)C4)[C@H]3CC[C@@]21C [Norethynodrel]
[1]
  Threshold or effective dose, Kaufman Assay: 150-200 mg/cycle
[4]; oral
  Threshold or effective dose, Clauberg Assay: 0.3 mg/animal
[4]; s.c. (i.m.)
  Threshold or effective dose, Clauberg Assay: 0.3 mg/animal
